Experimental findings from patent publication US8076485B2, “Methylphenidate derivatives and uses of them” (priority 2005, dated 2011) are described below.

SMILES strings stand for the structures.

Holding throughout (assay type): cell-based, human
Experiment [1] concerns IL-8. The experiment is described as follows: IL-8 release by TNFα-stimulated HUVECs (ELISA). The note with it: for IL-8 release stimulated by TNFα: HUVECs, 10 ng/ml TNFα, Cpd II 1-30 μg/ml, MP 15 μg/ml, Dex 10 μM, LY 294002 10 μM. The procedure:
Passage 4 HUVECs, human source lot number 8710 (obtained from ATCC), were put into the wells of a 24-well tissue culture plate at 5,000 cells/well in EGM-2 medium and cultured for 72 hours at 37° C. and 5% CO2. […] After incubation for 1 hour at 37° C. and 5% CO2, TNFα (Pierce) was added to give a final concentration of 10 ng/ml, and the cells were incubated for an additional 18 hours at 37° C. and 5% CO2. After this incubation, the supernatants were collected, and the amount of IL-8 in the supernatants determined by ELISA as described in Example 4.
A general note: An ELISA detects its analyte on a solid surface through an enzyme-linked reagent.

Experiment [2] deals with IL-13. The experiment can be described thus: IL-13 release by PBL (ELISA). The note with it: for IL-13 release induced by PHA: Example 2, GR467 PBL, 15 μg/ml Cpd II, 15 μg/ml MP, 10 μM Dex, PHA 2 μg/ml, 96 hours, FIG. 3. The procedure: (§1) After this incubation, PHA was added to give a final concentration of 2 μg/ml, and the cells were incubated for an additional 96 hours at 37° C., 5% CO2. All cultures were performed in triplicate. Cells were then removed by centrifugation at 1000 rpm for 10 minutes, and the culture medium collected.
(§2) Release of IL-13 and interferon gamma (IFNγ) into the culture medium was measured by ELISA. To perform the ELISA, matched pairs of antibodies against human IL-13 and IFNγ were purchased from Pierce Biotechnology and Biosource, respectively. ELISA strip well plates were coated with 10 μg/ml of antibody (in phosphate-buffered saline (PBS)) to IL-13 and 4 μg/ml of antibody to IFNγ (in PBS) overnight at room temperature. The plates were then blocked using a 4% BSA solution in PBS for one hour, followed by the addition of 50 μl of experimental culture medium per well in duplicate. The plates were incubated at room temperature for one hour and then washed using 50 mM Tris pH 8.0 with 0.1% Tween 20. Then, solutions of 400 ng/ml biotinylated second antibody to IL-13 and 500 ng/ml biotinylated second antibody to IFNγ were made in blocking buffer, and 100 μl were added per well. The plates were incubated for 1 hour and washed again. A 1:8000 dilution of Strepavidin HRP (Pierce Biotechnology) conjugate was made in blocking buffer, and 100 μl were added to the wells and incubation continued for 30 minutes. A final wash step was performed, after which 100 μl Pierce Biotechnology TMB substrate were added to each well. Color was developed for 30 minutes and stopped by adding 100 μl 0.18 NH2SO4. OD was determined using microplate reader with a 450 nm filter.
After this incubation, PHA was added to give a final concentration of 5 μg/ml, and the cells were incubated for an additional 72 hours at 37° C., 5% CO2. All cultures were performed in triplicate. Cells were then removed by centrifugation at 1000 rpm for 10 minutes.
The supernatants were collected, and the concentrations of IL-13 and tumor necrosis factor alpha (TNFα) in the supernatants were measured by ELISA. The IL-13 ELISA was performed as described in Example 2.

Experiment [3] concerns IFNγ. The experiment is described as follows: IFNγ release by PBL (ELISA). The note with it: Example 2, GR467 PBL, 15 μg/ml Cpd II, 15 μg/ml MP, 10 μM Dex, FIG. 4; for IFNγ release, cells stimulated with PHA: PHA 2 μg/ml, 96 hours. The procedure:
as §1, §2

Experiment [4] concerns peripheral blood lymphocytes (PBL). The experiment is described as follows: PBL proliferation assay (Promega cell titer, OD 530 nm). The note with it: for proliferation of PBL stimulated with PHA (OD at 530 nm): Example 1, donor GR283; for proliferation of PBL, both unstimulated and stimulated with PHA (OD at 530 nm): Dex 10 μM. The procedure:
Whole blood was drawn from GR283, a human volunteer with known allergies, into a glass vacutainer tube containing no anticoagulant. This blood was allowed to clot, and the serum was removed by centrifugation and then heat inactivated by placing it in a water bath at 56° C. for 30 minutes. Whole blood from GR283 was also drawn into a glass vacutainer tube containing heparin and used for peripheral blood lymphocytes (PBL) isolation as follows. Whole blood was layered over room temperature Histopaque 1077 solution and centrifuged at 2000 rpm for 15 minutes at room temperature. Cells at the plasma-Histopaque interface were then removed and washed with culture medium (IMDM medium with 10% heat-inactivated GR283 serum plus 1% penicillin/streptomycin) at 37° C.
Then, GR283's PBL in culture medium were added to the wells to give a final concentration of 150,000 cells per well, and the plates were incubated at 37° C., 5% CO2 for 24 hours. After this incubation, phytohemagglutinin (PHA) in culture medium was added to give final concentrations of 2 μg/ml, 5 μg/ml or 20 μg/ml, final total volume of 200 μl/well, and the cells were incubated for an additional 72 hours at 37° C., 5% CO2. All cultures were performed in triplicate.
Cell proliferation was assayed by adding 20 μl of Promega cell titer solution to each well and incubating the plate for an additional 4 hours. Promega cell titer solution is a solution containing a tetrazolium dye that is reduced by living cells to a formazan dye, and this reduction is proportional to the number of living cells present in the well. After the 4-hour incubation, the optical density (OD) at 530 nm of each well was measured. The OD at 530 nm for blank wells containing no cells was subtracted from the OD of the experimental wells.
Then, GR467's PBL in culture medium were added to the wells to give a final concentration of 150,000 cells per well, and the plates were incubated at 37° C., 5% CO2 for 24 hours. After this incubation, PHA was added to give a final concentration of 2 μg/ml, final total volume of 200 μl/well, and the cells were incubated for an additional 72 hours at 37° C., 5% CO2. All cultures were performed in triplicate.
Then, GR191's PBL in culture medium were added to the wells to give a final concentration of 150,000 cells per well, and the plates were incubated at 37° C., 5% CO2 for 24 hours. After this incubation, PHA was added to give final concentrations of 2 μg/ml and 5 μg/ml, final total volume of 200 μl/well, and the cells were incubated for an additional 72 hours at 37° C., 5% CO2. All cultures were performed in triplicate.

The mark [5] stands for this setting: Homo sapiens, HUVEC, 18 h, read-out: % inhibition (IL-8).
Setting [6] is: Cpd II and MP 5, 15, 50 μg/ml, Dex 10 μg/ml, PHA 2, 5, 20 μg/ml, FIGS. 1A-C.
The mark [7] stands for this setting: Example 2, donor GR467, Cpd II 5, 15, 25 μg/ml, MP 15 μg/ml, PHA 2 μg/ml, FIG. 2.
Where [8] appears, read: Example 3, donor GR191, Cpd II 5, 15, 25, 50 μg/ml, MP 50 μg/ml, PHA 2 and 5 μg/ml, FIGS. 5A-B.

What is called inhibition is the change of the read-out against control, counted positive when it falls.

Take `COC(=O)C(c1ccc(-c2ccccc2)cc1)C1CCCCN1` (stereo not drawn) [Cpd II]: in experiment [1], the “IL-8 release stimulated by TNFα” value is “decreased IL-8 release stimulated by TNFα in a dose-dependent manner”. Also, in experiment [1] (setting [5]), the inhibition at 1 µg/mL is -51.1%, the inhibition at 5 µg/mL turned out to be 3.08%, the inhibition at 10 µg/mL turned out to be 38.2% and the inhibition at 15 µg/mL was determined as 41.7%. In addition, the inhibition at 30 µg/mL in experiment [1] (setting [5]) stood at 86.9%. Further, the “IL-13 release induced by PHA” value in experiment [2] is on record as “significantly inhibited IL-13 release”. The “release of IL-13 from PHA-stimulated PBL” value in experiment [2] (Example 3, GR191 PBL, Cpd II 15 and 50 μg/ml, Dex 10 μM, PHA 5 μg/ml, 72 hours, FIG. 6) is “significantly inhibited the release of IL-13”. In addition, in experiment [3], the “IFNγ release, unstimulated cells” value is “significantly inhibited IFNγ release” and the “IFNγ release, cells stimulated with PHA” value is “significantly inhibited IFNγ release”. Also, in experiment [4] (setting [6]), the “proliferation of PBL stimulated with PHA (OD at 530 nm)” value is listed as “significantly inhibited the proliferation of PBL stimulated with PHA in a dose-dependent manner”. In experiment [4] (setting [7]), the “proliferation of PBL, both unstimulated and stimulated with PHA (OD at 530 nm)” value is recorded as “significantly inhibited the proliferation of PBL”. Moreover, the “proliferation of PBL, both unstimulated and stimulated with PHA (OD at 530 nm)” value in experiment [4] (setting [8]) is listed as “significantly inhibited the proliferation of PBL”.
On to `COC(=O)C(c1ccccc1)C1CCCCN1` (stereo not drawn) [methylphenidate], for which the “IL-8 release stimulated by TNFα” value in experiment [1] was “slightly decreased IL-8 release”. Besides, in experiment [1] (setting [5]), the inhibition at 15 µg/mL came to 15.2%. The “IL-13 release induced by PHA” value in experiment [2] is “increased the release of IL-13”; in experiment [2] (listed as Methylphenidate) it was “did not inhibit the release of IL-13”. The “IFNγ release, unstimulated cells” value in experiment [3] is on record as “had some effect”. Also, the “IFNγ release, cells stimulated with PHA” value in experiment [3] was “increased the release of IFNγ”; in experiment [3] (listed as Methylphenidate), “did not significantly suppress the release of IFNγ”. For the same compound, the “proliferation of PBL stimulated with PHA (OD at 530 nm)” value in experiment [4] (setting [6]) is recorded as “did not significantly reduce the proliferation”; in experiment [4] (highest MP dose (50 μg/ml) and lowest PHA dose (2 μg/ml)), “showed a significant effect”. For the same compound, the “proliferation of PBL, both unstimulated and stimulated with PHA (OD at 530 nm)” value in experiment [4] (setting [7]) and in experiment [4] (setting [8]) was “did not” in each case.
